According to paper PMC6751662, “Pharmacological and functional similarities of the human neuropeptide Y system in C. elegans challenges phylogenetic views on the FLP/NPR system” (Cell Communication and Signaling : CCS, 2019):

Key:
[1] = molecular target: T1, NPR-3 (Caenorhabditis elegans, UniProt P90745); assay: IP accumulation assay, chimeric GαΔ6qi4myr, NPR-3; format: cell-based, C. elegans; details: 1 h, HBSS + 20 mM LiCl, HEK293 receptor + GαΔ6qi4myr, HTRF IP-One
T1 construct: expressed in transfected cells; host or cells: HEK293
T1 sequence (P90745 1-376): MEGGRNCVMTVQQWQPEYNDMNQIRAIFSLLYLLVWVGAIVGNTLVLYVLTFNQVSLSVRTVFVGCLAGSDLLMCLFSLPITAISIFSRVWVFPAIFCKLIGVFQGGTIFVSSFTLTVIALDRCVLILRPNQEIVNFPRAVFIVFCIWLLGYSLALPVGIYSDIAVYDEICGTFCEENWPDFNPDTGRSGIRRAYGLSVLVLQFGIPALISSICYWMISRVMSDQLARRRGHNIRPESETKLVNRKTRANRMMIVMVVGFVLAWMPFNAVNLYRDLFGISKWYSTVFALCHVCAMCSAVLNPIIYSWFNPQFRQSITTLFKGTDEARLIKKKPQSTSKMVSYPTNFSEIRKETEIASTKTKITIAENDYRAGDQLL
Protocol: (§1) For measuring IP accumulation, HEK293 cells grown to 70–80% confluency in 6-well plates were transiently co-transfected using Metafectene Pro (2.5 μl/μg DNA; Biontex) with plasmids containing receptor and/or mock (empty pcDNA3.1) (for endogenous Gq-coupling) using 4 μg total DNA in a ratio of 3:1 following the manufacturer’s instructions. For testing Gα16- and GαΔ6qi4myr-coupling, plasmids encoding the corresponding Gα protein were co-transfected instead of mock. Gα16 is naturally promiscuous and stimulates the phospholipase C (PLC) pathway leading to IP production, while the exchange of the C-terminal four amino acids of Gαq for the corresponding residues of Gαi1 in the chimeric GαΔ6qi4myr confers the ability to couple to Gi/o protein-preferring receptors but still stimulate PLC, thus specifically redirecting downstream cellular signaling. 16 h post transfection, the cells were seeded into white 384-well plates at a density of 20,000 cells/well. Media was removed 24 h later and the cells were incubated with the indicated concentration of peptides for 1 h in HBSS + 20 mM LiCl. IP accumulation was measured with the HTRF-based IP-One Gq kit (Cisbio) on a microplate reader (Tecan Spark).
(§2) For in vitro activation, data is presented as mean ± SEM of at least three independent experiments conducted in technical triplicate. […] For the C. elegans NPRs, we considered the strongest response elicited by any of the peptides downstream of a particular receptor as the receptor’s maximal signal. This may or may not be the biological maximum that can be reached by the ‘true’ endogenous agonist. For the human receptors, the response to the established endogenous agonist reflected the maximal signal.

[2] = molecular target: T2, Y1R (Homo sapiens, UniProt P25929); assay: IP accumulation assay, chimeric GαΔ6qi4myr, Y1R; format: cell-based; details: chimeric GαΔ6qi4myr co-transfected, transiently transfected HEK293 cells, mean of at least three independent experiments
T2 construct: expressed in transfected cells; host or cells: HEK293, transient
T2 sequence (P25929 1-384): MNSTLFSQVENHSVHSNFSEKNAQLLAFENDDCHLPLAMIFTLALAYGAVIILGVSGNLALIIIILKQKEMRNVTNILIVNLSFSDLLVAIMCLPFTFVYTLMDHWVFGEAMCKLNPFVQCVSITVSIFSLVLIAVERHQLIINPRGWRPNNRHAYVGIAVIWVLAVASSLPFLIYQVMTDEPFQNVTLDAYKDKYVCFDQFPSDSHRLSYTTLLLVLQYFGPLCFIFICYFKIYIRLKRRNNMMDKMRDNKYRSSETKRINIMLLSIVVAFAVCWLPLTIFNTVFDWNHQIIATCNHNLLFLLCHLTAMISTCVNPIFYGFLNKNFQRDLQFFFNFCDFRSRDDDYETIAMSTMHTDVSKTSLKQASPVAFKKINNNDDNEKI
Protocol: as §1, §2

[3] = molecular target: T3, Y5R (Homo sapiens, UniProt Q15761); assay: IP accumulation assay, chimeric GαΔ6qi4myr, Y5R; format: cell-based; details: chimeric GαΔ6qi4myr co-transfected, transiently transfected HEK293 cells, mean of at least three independent experiments
T3 construct: expressed in transfected cells; host or cells: HEK293, transient
T3 sequence (Q15761 1-445): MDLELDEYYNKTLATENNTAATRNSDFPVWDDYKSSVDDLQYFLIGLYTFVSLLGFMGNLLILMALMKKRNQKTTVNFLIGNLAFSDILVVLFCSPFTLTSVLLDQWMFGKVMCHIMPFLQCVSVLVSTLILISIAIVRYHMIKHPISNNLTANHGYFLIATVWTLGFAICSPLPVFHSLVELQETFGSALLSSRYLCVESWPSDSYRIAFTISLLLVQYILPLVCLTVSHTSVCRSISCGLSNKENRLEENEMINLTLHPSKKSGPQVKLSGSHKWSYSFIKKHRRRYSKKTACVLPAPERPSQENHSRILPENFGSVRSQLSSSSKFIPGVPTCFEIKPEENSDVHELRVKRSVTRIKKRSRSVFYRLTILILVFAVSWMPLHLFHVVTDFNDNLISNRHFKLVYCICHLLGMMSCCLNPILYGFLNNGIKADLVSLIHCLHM
Protocol: as §1, §2

[4] = molecular target: T4, NPFF1R (Homo sapiens, UniProt Q9GZQ6); assay: cAMP reporter gene assay, Gi/o, NPFF1R; format: cell-based; details: for cAMP assay (Gi/o), NPFF1R: 4 h, lower = higher Gi/o activity, transfected HEK293, CRE-luciferase, mean of >=3 independent experiments; for Gi (Gs) [x-fold of forskolin], NPFF1R, mean: inhibition of cAMP production induced by 1 µM forskolin (set to 1.00), transiently transfected HEK293 cells, mean of at least three independent experiments
T4 construct: expressed in transfected cells; host or cells: HEK293, transient
T4 sequence (Q9GZQ6 whole entry): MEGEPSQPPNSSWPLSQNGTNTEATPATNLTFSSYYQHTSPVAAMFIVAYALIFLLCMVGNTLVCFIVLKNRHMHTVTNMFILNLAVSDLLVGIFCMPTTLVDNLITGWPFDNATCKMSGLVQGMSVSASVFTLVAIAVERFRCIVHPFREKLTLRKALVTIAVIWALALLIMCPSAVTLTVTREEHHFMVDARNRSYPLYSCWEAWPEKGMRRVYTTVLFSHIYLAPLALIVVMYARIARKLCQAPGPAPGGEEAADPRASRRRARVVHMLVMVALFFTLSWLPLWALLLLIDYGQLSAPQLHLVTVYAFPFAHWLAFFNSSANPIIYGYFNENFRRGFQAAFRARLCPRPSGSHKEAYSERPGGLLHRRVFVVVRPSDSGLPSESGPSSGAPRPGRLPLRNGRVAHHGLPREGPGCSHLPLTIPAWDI
Protocol: (§3) Activation of Gs and Gi/o was assessed with a cAMP reporter gene assay. HEK293 cells grown to 70–80% confluency in 6-well plates were transiently co-transfected with vectors encoding the receptor and the cAMP reporter gene plasmid pGL4.29 [luc2P/CRE/Hygro] (Promega; 4 μg total, 1:1 ratio) using Metafectene Pro (3 μl/μg DNA; Biontex) following the manufacturer’s instructions. 16 h post transfection, the cells were seeded into white 384-well plates at a density of 20,000 cells/well. On the next day, the medium was removed and the cells were stimulated with 20 μl of peptide solution (or forskolin as positive control) in serum-free DMEM for 4 h. For measuring Gi/o activity, the peptide solutions additionally contained 1 μM forskolin to elevate cellular cAMP levels. After incubation, the luciferase substrate OneGlo in lysis buffer (Promega) was added and the luminescence was measured in a microplate reader Tecan Spark (Tecan). Data were analyzed with GraphPad Prism 5.03 and are shown as fold of basal or fold of forskolin in case of Gαi/o activity.
as §2

[5] = molecular target: T5, NPFF2R (Homo sapiens, UniProt Q9Y5X5); assay: cAMP reporter gene assay, Gi/o, NPFF2R; format: cell-based; details: for cAMP assay (Gi/o), NPFF2R: 4 h, lower = higher Gi/o activity, transfected HEK293, CRE-luciferase, mean of >=3 independent experiments; for Gi (Gs) [x-fold of forskolin], NPFF2R, mean: inhibition of cAMP production induced by 1 µM forskolin (set to 1.00), transiently transfected HEK293 cells, mean of at least three independent experiments
T5 construct: expressed in transfected cells; host or cells: HEK293, transient
T5 sequence (Q9Y5X5 103-522): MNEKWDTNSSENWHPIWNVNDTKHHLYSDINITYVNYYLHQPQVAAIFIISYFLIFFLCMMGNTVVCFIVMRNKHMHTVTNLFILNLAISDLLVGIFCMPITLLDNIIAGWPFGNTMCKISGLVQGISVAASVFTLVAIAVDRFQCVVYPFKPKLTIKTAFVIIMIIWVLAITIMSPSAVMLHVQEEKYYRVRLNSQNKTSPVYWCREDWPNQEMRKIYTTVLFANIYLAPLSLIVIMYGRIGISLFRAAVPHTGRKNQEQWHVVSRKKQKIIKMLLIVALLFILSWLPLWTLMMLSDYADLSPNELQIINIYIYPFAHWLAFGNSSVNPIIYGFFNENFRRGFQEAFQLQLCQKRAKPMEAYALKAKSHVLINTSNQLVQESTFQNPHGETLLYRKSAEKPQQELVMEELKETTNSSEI
Protocol: as §3, §2

[6] = 0.1 µM peptide (Table S8), mean of >=3 independent experiments
[7] = 10 µM peptide, mean of >=3 independent experiments (Tables S5 and S8)
[8] = 0.1 µM peptide + 1 µM forskolin (set to 1.00)
[9] = 10 µM peptide + 1 µM forskolin (set to 1.00)

| Substance | IP accumulation with GαΔ6qi4myr, NPR-3 [1, 6] | IP accumulation with GαΔ6qi4myr, NPR-3 [1, 7] | IP accumulation, x-fold of basal (mean), Y1R ([2]; 0.1 µM peptide) | IP accumulation, x-fold of basal (mean), Y1R ([2]; 10 µM peptide) | IP accumulation, x-fold of basal (mean), Y5R ([3]; 0.1 µM peptide) | IP accumulation, x-fold of basal (mean), Y5R ([3]; 10 µM peptide) | further results |
| --- | --- | --- | --- | --- | --- | --- | --- |
| AGSDPNFLRF-NH2 [FLP-1-2, C. elegans FMRFamide-like peptide, C-terminally amidated, synthesized by SPPS] | 0.96 x-fold of basal | 0.93 x-fold of basal | 1.25 x-fold of basal | 3.68 x-fold of basal | 1.33 x-fold of basal | 1.17 x-fold of basal |  |
| APKPKFIRF-NH2 [FLP-5-1, C. elegans FMRFamide-like peptide, C-terminally amidated, synthesized by SPPS] | 0.88 x-fold of basal | 0.95 x-fold of basal | 1.02 x-fold of basal | 1.69 x-fold of basal | 0.80 x-fold of basal | 5.88 x-fold of basal | IP assay endog. Gαq + GαΔ6qi4myr, NPR-3 ([1]; 0.1 nM peptide (Table S5), mean of >=3 independent experiments): 0.88 x-fold of basal |
| APLEGFEDMSGFLRTIDGIQKPRF-NH2 [FLP-33, NPY-like C. elegans FLP with C-terminal RxRF/Ya signature] |  |  |  |  |  |  | cAMP assay (Gi/o), NPFF1R [4, 8]: 0.81 x-fold of forskolin; cAMP assay (Gi/o), NPFF1R [4, 9]: 0.47 x-fold of forskolin; cAMP assay (Gi/o), NPFF2R [5, 8]: 0.82 x-fold of forskolin; cAMP assay (Gi/o), NPFF2R [5, 9]: 0.16 x-fold of forskolin |
| APLEPVYPGDNATPEQMAQYAADLRRYINMLTRPRY-NH2 [PP, human pancreatic polypeptide, reference compound] |  |  | 17.01 x-fold of basal | 25.89 x-fold of basal | 16.39 x-fold of basal | 17.90 x-fold of basal |  |
| ASPSFIRF-NH2 [FLP-4-2, C. elegans FMRFamide-like peptide, C-terminally amidated, synthesized by SPPS] | 0.92 x-fold of basal | 1.05 x-fold of basal | 2.37 x-fold of basal | 1.93 x-fold of basal | 1.14 x-fold of basal | 1.29 x-fold of basal |  |
| EASAFGDIIGELKGKGLGGRMRF-NH2 [FLP-27, NPY-like C. elegans FLP with C-terminal RxRF/Ya signature] |  |  |  |  |  |  | cAMP assay (Gi/o), NPFF1R [4, 8]: 0.76 x-fold of forskolin; cAMP assay (Gi/o), NPFF1R [4, 9]: 0.26 x-fold of forskolin; cAMP assay (Gi/o), NPFF2R [5, 8]: 0.66 x-fold of forskolin; cAMP assay (Gi/o), NPFF2R [5, 9]: 0.18 x-fold of forskolin |
| GLGPRPLAF-NH2 [[R8A]FLP-21, R8A control peptide of FLP-21, penultimate arginine exchanged for an alanine] |  |  |  |  |  |  | Gi (Gs) [x-fold of forskolin], NPFF1R, mean ([4]; 0.1 µM peptide): 1.03 x-fold of forskolin; Gi (Gs) [x-fold of forskolin], NPFF1R, mean ([4]; 10 µM peptide): 0.66 x-fold of forskolin; Gi (Gs) [x-fold of forskolin], NPFF2R, mean ([5]; 0.1 µM peptide): 0.88 x-fold of forskolin; Gi (Gs) [x-fold of forskolin], NPFF2R, mean ([5]; 10 µM peptide): 0.60 x-fold of forskolin |
| NPENDTPFGTMRF-NH2 [FLP-3-4, C. elegans FMRFamide-like peptide, C-terminally amidated, synthesized by SPPS] | 0.97 x-fold of basal | 0.91 x-fold of basal | 1.54 x-fold of basal | 3.82 x-fold of basal | 0.67 x-fold of basal | 1.41 x-fold of basal |  |
| PrRP31 [reference compound] |  |  | 0.87 x-fold of basal | 1.86 x-fold of basal | 0.70 x-fold of basal | 9.64 x-fold of basal |  |
| RGPSGPLAF-NH2 [[R8A]FLP-15-2] |  |  |  |  |  |  | Gi (Gs) [x-fold of forskolin], NPFF1R, mean ([4]; 0.1 µM peptide): 0.91 x-fold of forskolin; Gi (Gs) [x-fold of forskolin], NPFF1R, mean ([4]; 10 µM peptide): 0.71 x-fold of forskolin; Gi (Gs) [x-fold of forskolin], NPFF2R, mean ([5]; 0.1 µM peptide): 0.94 x-fold of forskolin; Gi (Gs) [x-fold of forskolin], NPFF2R, mean ([5]; 10 µM peptide): 0.97 x-fold of forskolin |
| TPDINPAWYASRGIRPVGRF-NH2 [PrRP20, human prolactin-releasing peptide, 20 residues, reference compound] |  |  | 0.82 x-fold of basal | 2.68 x-fold of basal | 1.01 x-fold of basal | 5.90 x-fold of basal |  |
| TSGPLGNLAEELNGYSRKKGGFSFRF-NH2 [QRFP26, human pyroglutamylated RFamide peptide, 26 residues, reference compound] |  |  | 1.32 x-fold of basal | 2.75 x-fold of basal | 0.87 x-fold of basal | 3.57 x-fold of basal |  |
